Assay [1] addresses 2-acylglycerol O-acyltransferase 1 (MGAT1, MOGAT1) (Homo sapiens) (UniProt Q96PD6). Briefly: Inhibition of MGAT1 (unknown origin) assessed as effect on incorporation of [1-14C]decanoyl moiety into DAG using [1-14C]decanoyl-CoA and 2-oleoylglycerol as substrates.
Assay [2] addresses 2-acylglycerol O-acyltransferase 3 (MGAT3, MOGAT3) (Homo sapiens) (UniProt Q86VF5). Briefly: Inhibition of MGAT3 (unknown origin) assessed effect on incorporation of [1-14C]decanoyl moiety into triacylglycerol using [1-14C]decanoyl-CoA and 1,2-didecanoyl-sn-glycerol as substrates pre-incubated for 30 mins before substrate addition.
Assay [3] shares this target. Briefly: Inhibition of human MGAT3 expressed in HEK293 cells assessed as effect on incorporation of [1,3-14C] glycerol into TAG by TLC method in presence of DGAT1 inhibitor PF-04620110 and DGAT2 inhibitor PF-06424439.

Several values for one entry are separate records, joined by “and”; a condition that tells them apart may be missing. Equal entries are not always repeated.

Sequence of 2-acylglycerol O-acyltransferase 3 (MGAT3, MOGAT3) (Homo sapiens) (Q86VF5 whole entry, looked up): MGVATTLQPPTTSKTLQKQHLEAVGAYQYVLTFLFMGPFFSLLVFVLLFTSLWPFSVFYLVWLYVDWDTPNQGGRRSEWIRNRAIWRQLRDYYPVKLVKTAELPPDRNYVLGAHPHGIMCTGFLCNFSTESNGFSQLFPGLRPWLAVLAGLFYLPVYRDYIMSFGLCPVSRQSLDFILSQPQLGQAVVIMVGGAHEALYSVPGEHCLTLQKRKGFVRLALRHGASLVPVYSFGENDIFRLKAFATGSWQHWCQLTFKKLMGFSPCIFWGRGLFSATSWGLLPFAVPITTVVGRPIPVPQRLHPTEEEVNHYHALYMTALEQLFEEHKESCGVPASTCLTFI
Sequence of 2-acylglycerol O-acyltransferase 1 (MGAT1, MOGAT1) (Homo sapiens) (Q96PD6 whole entry, looked up): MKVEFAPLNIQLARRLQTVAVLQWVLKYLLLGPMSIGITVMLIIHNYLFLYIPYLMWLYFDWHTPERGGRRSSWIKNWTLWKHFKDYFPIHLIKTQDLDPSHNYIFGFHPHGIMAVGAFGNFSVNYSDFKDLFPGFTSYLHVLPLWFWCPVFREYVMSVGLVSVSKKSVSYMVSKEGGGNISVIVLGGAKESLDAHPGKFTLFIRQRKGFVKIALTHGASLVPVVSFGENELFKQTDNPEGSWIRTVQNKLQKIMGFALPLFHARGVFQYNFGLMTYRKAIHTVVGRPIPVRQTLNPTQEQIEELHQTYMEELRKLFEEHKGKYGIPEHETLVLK

`COc1cccc(CC(=O)N2Cc3ccc(S(=O)(=O)NCCc4cccc(F)c4)cc3C2)c1`: the IC50 in assay [1] is over 40000 nM; in assay [2], 682 nM and 631 nM.
With `COc1cccc(CC(=O)N2Cc3ccc(S(=O)(=O)N(C)CCc4cccc(F)c4)cc3C2)c1`, in assay [2], the IC50 was 2740 nM and 2510 nM.
Regarding `COc1cccc(CC(=O)N2Cc3ccc(S(=O)(=O)Nc4cnn(C)n4)cc3C2)c1`, the IC50 in assay [2] is 3840 nM and 3980 nM.
Take `COc1cccc(CC(=O)N2Cc3ccc(S(=O)(=O)Nc4cnn(-c5ccccc5)n4)cc3C2)c1`: the midpoint of inhibition in assay [2], the IC50, lay at 6 nM.
Still for that read-out and setting: to `COc1cccc(CC(=O)N2Cc3ccc(S(=O)(=O)Nc4cnn(-c5ccc(F)cc5)n4)cc3C2)c1` belongs 6 nM; to `COc1cccc(CC(=O)N2Cc3ccc(S(=O)(=O)Nc4cnn(C(C)C)n4)cc3C2)c1`, 597 nM and 631 nM.
Turning to `COc1cccc(CC(=O)N2Cc3ccc(S(=O)(=O)Nc4cnn(C5CCC5)n4)cc3C2)c1`, the IC50 in assay [3] is 205 nM and 204 nM; in assay [1] it was 14900 nM and 14800 nM; in assay [2], 92 nM and 100 nM.
With `COc1cccc(CC(=O)N2Cc3ccc(S(=O)(=O)Nc4cnn(C5COC5)n4)cc3C2)c1`, in assay [2], the IC50 is 365 nM and 398 nM.
Regarding `COc1cccc(CC(=O)N2Cc3ccc(S(=O)(=O)Nc4cnn(C5CC(F)(F)C5)n4)cc3C2)c1`, the IC50 in assay [3] was 394 nM and 389 nM.

The values are drawn from BindingDB's records for doi:10.1021/acs.jmedchem.5b01008 (Pfizer, 2015).
